Measurements published in patent US8604216B2, “Desferrithiocin derivatives and methods of use thereof” (University of Florida Research Foundation, Inc., priority 2003, dated 2013).

Key:
[1] = system: non-iron overloaded, fasted rats; assay: Iron clearance in bile duct-cannulated rats; format: in vivo; details: male Sprague-Dawley rats
Procedure: (S)-2-(4′,5′-dimethoxyphenyl)-4-thiazoline-4-carboxylic acid (1) was administered to non-iron overloaded, fasted rats that had been subjected to routine bile duct cannulation. Briefly, male Sprague-Dawley rats averaging 450 g were housed in Nalgene plastic metabolic cages during the experimental period and given free access to water. The animals were anesthetized using sodium pentobarbital (55 mg/kg) administered intraperitoneally. The bile duct was cannulated using 22-gauge polyethylene tubing. The cannula was inserted into the duct about 1 cm from the duodenum and tied snugly in place. After threading through the shoulder, the cannula was passed from the rat to the swivel inside a metal torque-transmitting tether, which was attached to a rodent jacket around the animal's chest. The cannula was directed from the rat to a Gilson microfraction collector (Middleton, Wis.) by a fluid swivel mounted above the metabolic cage. Bile samples were collected at 3 hour intervals for 24 hours. The urine sample was taken at 24 hours and handling was as previously described in Bergeron, R. J., et al., J Med Chem. 34:2072-2078 (1991), the contents of which are incorporated herein by reference.

[2] = system: iron-overloaded Cebus apella monkeys; assay: Iron clearance in iron-overloaded Cebus apella monkeys; format: in vivo; details: oral
Procedure: (S)-2-(4′,5′-dimethoxyphenyl)-4-methylthiazoline-4-carboxylic acid (2) was administered to iron-overloaded Cebus apella monkeys. The protocol can be found in Bergeron, R. J. et al., “Methoxylatoin of Desazadesferrithiocin Analogues: Enhanced Iron Clearing Efficiency,” J Med Chem. 46:1470-1477 (2003), the contents of which are incorporated herein by reference. Briefly, the monkeys were iron overloaded with iron dextran administered intravenously to result in an iron loading of about 500 mg per kg of body weight. At least 20 half-lives, 60 days, elapsed before the animals were used in experiments evaluating iron chelators. The iron chelator was solubilized in 40% Cremophor RH-40/water (v/v) and were administered orally to the monkeys. Fecal and urine samples were collected at 24 hour intervals beginning 4 days prior to the administration of an iron chelator and continued for 5 days after the chelator was administered. Iron concentrations in stool and urine were determined by flame atomic absorption spectroscopy. Iron chelator efficiency was calculated by dividing the net iron clearance [total iron excretion (stool plus urine) minus background] by the theoretical iron clearance and multiplying by 100. The theoretical clearance of the iron chelator was generated on the basis of a 2:1 ligand/iron complex. At a dose of 114.2 μmol/kg, the efficiency of 2 was calculated to be 14.8±2.9%. […] Approximately 20% of the iron was excreted in the urine, while the majority (approximately 80%) was eliminated in the feces. In a separate experiment, 2 was administered to iron overloaded Cebus apella at a dose of 150 μmol/kg. In this experiment, the iron clearing efficiency was calculated to be 16.1±4.1%. This efficiency was within error of the lower dose of 2 […].

SMILES | tolerability [1] | efficiency of iron excretion ([1]; bile collected for 24 hours, urine at 24 hours) | share of iron eliminated in the feces ([2]; 114.2 μmol/kg) | share of iron excreted in the urine ([2]; 114.2 μmol/kg) | iron clearing efficiency ([2]; 114.2 μmol/kg, in 40% Cremophor RH-40/water, stool plus urine iron minus background vs theoretical 2:1 ligand/iron complex) | iron clearing efficiency ([2]; 150 μmol/kg, separate experiment)
COc1ccc([C@H]2NC(C(=O)O)=CS2)cc1OC [Compound 1, (S)-2-(4′,5′-dimethoxyphenyl)-4-thiazoline-4-carboxylic acid] | tolerated the drug well | less than 0.5% | – | – | – | –
COc1ccc(C2=N[C@@](C)(C(=O)O)CS2)cc1OC [Compound 2, (S)-2-(4′,5′-dimethoxyphenyl)-4-methylthiazoline-4-carboxylic acid] | – | – | approximately 80% | Approximately 20% | 14.8±2.9% | 16.1±4.1%
